Assay results as given in patent publication US5132432A, “Chemically reactive pyrenyloxy sulfonic acid dyes” (Molecular Probes, Inc., priority 1989, dated 1992).
Counter-ions that a name gives are not always drawn. Like-named read-outs stand apart in the source and are kept apart here.

Experiments:
[1] = in 1N sulfuric acid; cited from earlier work
[2] = Emission spectra comparison of equimolar solutions / normalized spectra (FIG. 2, FIG. 3); format: physicochemical
Excerpt: The narrower spectral width makes the dyes particularly valuable for applications requiring multiple dyes such as flow cytometry, DNA sequencing [Smith, et at. (1985)] and multiparameter microscopy. The utility of the objects of this invention in multiparameter applications is illustrated in FIG. 3. […] The extinction coefficients for the pyrenyloxy sulfonic acid dyes are generally greater than 25,000 cm^-1 M^-1 and the quantum yields of the dyes in aqueous solution are generally above 0.5. In FIG. 4, the emission intensities of bovine serum albumin (BSA) conjugates of the pyrene isothiocyanate IPTS are compared to the BSA conjugates of compound 9. […] The subject dyes show only minor spectral shifts and intensity changes between water, methanol, and ethanol and have absorption and emission spectra that lack significant pH dependence between pH 6 and 10, as illustrated in FIG. 5. Table 4 lists the approximate spectral properties of a number of the dyes and intermediates that are the subject of this invention.

[3] = Comparison of spectral properties of reactive dyes, Table 1; format: physicochemical; conditions: for Quantum Yield: in aqueous solution, grade in words
Excerpt: A number of dyes have been proposed in the literature that can be excited and detected at wavelengths less than 500 nm. Several chemically reactive fluorophores that can be excited in the near ultraviolet and short wavelength visible region of the spectrum have been described. […] These proposed tracers are derived from naphthalene derivatives such as 5-dimethylaminonaphthalene-1-sulfonic acid (Dansyl) [Weber, Biochem. J. 41:145 (1952); Rinderknecht, Experientin 16:430 (1960)], 3-(isothiocyanato)naphthalene-1,5-disulfonic acid [Braunitzer, et al., Hoppe-Seyler's Z. Physiol. […] Chem. 358:505 (1977)], pyrene derivatives such as pyrene-1-butyric acid (PBA) [Malencik & Anderson, Biochemistry 11:3022 (1972)], 8-isothiocyanatopyrene-1,3,6-trisulfonic acid (IPTS) [Braunitzer,et al., Hoppe-Seyler's Z. Physiol. Chem. 354:1536 (1973)] and 8-hydroxypyrene-1,3,6-trisulfonyl chloride [Wolfbeis, Fresenies Z. Anal. Chem. 320:271 (1985)], stilbene derivatives such as 4-acetamido-4'-isothiocyanatostilbene-2,2'-disulfonic acid (SITS) [Cornelisse & Ploem, J. Histochem. Cytochem. 24:72 (1976)], and coumarin dyes such as 3-carboxy-7-hydroxycoumarin [Baker & Collis, J. Chem. Soc. 1949, S 12 (1949)], 7-hydroxy-4-methylumbelliferone-3-acetic acid (4-MUA) [Khalfan, et al., Biochem. J. 209:265 (1983)], 7-amino-4-methylcoumarin-3-acetic acid (AMCA) [Khalfan, et al., Histochem. J. 18:497 (1986)] and 7-diethylaminocoumarin [Staines, et al. (1988)].

[4] = Spectral properties (absorption/emission) of new pyrenyloxy sulfonic acid dyes, Table 4; format: physicochemical; conditions: 50 mM aqueous potassium phosphate buffer at pH 8.0
Experimental: Stock solutions were prepared by accurately weighing and dissolving 5-10 mg samples of the compounds in 2.000 ml water. A 10 μl aliquot of the stock solution was diluted into 2.00 ml of 50 mM potassium phosphate buffer at pH 8.0. Absorbance solutions were prepared by further diluting 200 μl of the diluted stock solution to 2.000 ml with 50 mM potassium phosphate buffer at pH 8.0. Absorption data was collected on an IBM Model 9420 UV/Visible Spectrophotometer and extinction coefficients were determined by standard Beer's Law calculations.
Uncorrected fluorescence data was obtained on a Perkin-Elmer Model 650-40 Fluorescence Spectrophotometer equipped with a Perkin-Elmer/Hitachi 057 X-Y Recorder using a ten- to twentyfold dilution of the absorbance solutions. Fluorescence of the pyrenyloxy sulfonic acid dyes was determined for the reactive dyes and for their conjugates with model compounds by dissolving the dye at a concentration above 1×10^-8M in an appropriate solvent such as water, methanol, ethanol, or dimethylsulfoxide and measurement of the fluorescence in a suitable instrument, such as a fluorescence spectrometer or fluorescence microscope or flow cytometer. Fluorescence could also be observed for the dyes in solution by visual inspection with illumination by a suitable source that emits light at wavelengths of less than 420 nm.

[5] = Quantum yield relative to quinine sulfate; format: physicochemical; conditions: in 50 mM phosphate buffer at pH 8.0
Excerpt: An estimate of the quantum yield of the dyes relative to quinine sulfate (quantum yield=0.55 in 1N sulfuric acid) was obtained by integrating the emission spectrum of the dye excited at the same wavelength and optical density as the standard.

[6] = Solubility in water / aqueous solution; conditions: solubility of the reactive form of the dye; grade in words
[7] = background statement; cited from earlier work
[8] = system: microsomal glucose-6-phosphatase; conditions: cited from earlier work
[9] = system: anion transport systems in red blood cells; conditions: cited from earlier work
Swiss-Webster mice = conditions: mouse, in vivo; cited from earlier work
[10] = full bandwidth at half peak height

Structure (SMILES): C=C[C@H]1C[N@@]2CC[C@H]1C[C@H]2[C@H](O)c1ccnc2ccc(OC)cc12 [quinine sulfate]
- quantum yield of standard [1]: 0.55

Structure (SMILES): NNC(=O)COc1cc(S(=O)(=O)[O-])c2ccc3c(S(=O)(=O)[O-])cc(S(=O)(=O)[O-])c4ccc1c2c43.[Na+].[Na+].[Na+] [Compound 12, 1,3,6-Trisulfo-8-pyrenyloxyacethydrazide, trisodium salt]
- resolution of emission from fluorescein and Lucifer Yellow CH [2]: emission which is well resolved from the emission bands of both these widely used dyes
- ε ([3]; at first maximum): 28000 M⁻¹ cm⁻¹
- ε ([3]; at second maximum): 23300 M⁻¹ cm⁻¹
- Abs Max ([3]; first maximum): 399 nm
- Emission Bandwidth [3, 10]: 50 nm
- Emission Bandwidth [cm^-1] [3, 10]: 2168 cm⁻¹
- Quantum Yield [3]: high
- % Emission at 514 nm ([3]; percent of maximum emission at 514 nm): 3.8 % of max
- Abs Max ([3]; second maximum): 376 nm
- Emission Band-width [4]: 50 nm
- Emission at 514 nm [4]: 3.9 % of max
- Abs Max ([4]; first (longer-wavelength) maximum): 399 nm
- Abs Max ([4]; second (shorter-wavelength) maximum): 377 nm
- Quantum Yield [5]: 0.54
- Water Solubility [6]: high

Structure (SMILES): CC(=O)Nc1ccc(/C=C/c2ccc(N=C=S)cc2S(=O)(=O)O)c(S(=O)(=O)O)c1 [SITS, 4-acetamido-4'-isothiocyanatostilbene-2,2'-disulfonic acid]
- aqueous solubility / lipophilicity [7]: high water solubility
- % Emission at 514 nm [3]: 19
- Abs Max [3]: 337
- Em. Max. [3]: 438
- Emission Bandwidth [3]: 82
- Emission Bandwidth [cm^-1] [3]: 4825
- ε [3]: 37400 M⁻¹ cm⁻¹
- Quantum Yield [3]: low
- effect on microsomal glucose-6-phosphatase [8]: inhibitory effect
- effect on anion transport systems in red blood cells [9]: inhibitory effect
- Water Solubility [6]: high

Structure (SMILES): O=S(=O)([O-])c1cc(O)c2ccc3c(S(=O)(=O)[O-])cc(S(=O)(=O)[O-])c4ccc1c2c34.[Na+].[Na+].[Na+] [8-hydroxypyrene-1,3,6-trisulfonic acid, trisodium salt]
- toxicity to Swiss-Webster mice (Swiss-Webster mice): nontoxic to Swiss-Webster mice

Structure (SMILES): O=S(=O)(O)c1cc(O)c2ccc3c(S(=O)(=O)O)cc(S(=O)(=O)O)c4ccc1c2c34 [8-hydroxypyrene-1,3,6-trisulfonic acid]
- LD50 (Swiss-Webster mice): exceeding 1000 mg/kg
